In patent publication US6869957B1, “Non-peptide tachykinin receptor antagonists” (Eli Lilly and Company, priority 1993, dated 2005):

What follows are compounds tested against T1, NK-1 receptor (Homo sapiens, UniProt P25103) (assay: NK-1 Receptor Binding Assay (125I-labeled substance P, IM9 cells)). Details: @ 1 μM.
T1 construct: endogenous in cells; host or cells: IM9 cells (human cell line), whole cells
Experimental: (§1) The biological activity of the compounds of the present invention was evaluated employing an initial screening assay which rapidly and accurately measured the binding of the tested compound to known NK-1 and NK-2 receptor sites. Assays useful for evaluating tachykinin receptor antagonists are well known in the art.
NK-1 Receptor Binding Assay
Radioreceptor binding assays were performed using a derivative of a previously published protocol.
The IM9 cell line is a well-characterized and readily available human cell line.
The reaction was terminated by filtration through a glass fiber filter harvesting system using filters previously soaked for 20 minutes in 0.1% polyethylenimine. Specific binding of labeled substance P was determined in the presence of 20 nM unlabeled ligand.

T1 sequence (P25103 whole entry): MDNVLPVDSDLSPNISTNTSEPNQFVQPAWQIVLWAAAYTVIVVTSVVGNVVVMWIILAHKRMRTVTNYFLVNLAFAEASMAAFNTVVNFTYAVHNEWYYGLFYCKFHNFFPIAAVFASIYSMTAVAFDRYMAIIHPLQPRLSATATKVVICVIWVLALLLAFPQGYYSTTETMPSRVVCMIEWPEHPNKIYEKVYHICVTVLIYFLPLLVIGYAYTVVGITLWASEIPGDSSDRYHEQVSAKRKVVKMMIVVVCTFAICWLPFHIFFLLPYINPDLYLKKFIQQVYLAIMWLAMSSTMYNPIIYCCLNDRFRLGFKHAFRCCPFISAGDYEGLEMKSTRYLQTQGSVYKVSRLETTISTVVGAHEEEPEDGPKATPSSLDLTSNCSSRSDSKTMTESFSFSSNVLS

| Compound | NK-1 percent inhibition of binding |
| --- | --- |
| COc1ccccc1CN(CC(C)(Cc1c[nH]c2ccccc12)NC(=O)CBr)C(=O)OC(C)(C)C (centres unmarked) [Example 134] | 14% @ |
| COc1ccccc1CN(C[C@H](Cc1c[nH]c2ccccc12)NC(=O)OCc1ccccc1)C(C)=O [Example 93] | 16% @ |
| COc1ccccc1CNCC(Cc1c[nH]c2ccccc12)NC(=O)CN1CCN(c2ccccc2)CC1 (centres unmarked) [Example 6] | 62% @ |

Same assay, conditions: @ 1 μM; read-out: NK-1 percent inhibition of binding

| Compound | inhibition at 1 µM |
| --- | --- |
| NCC(Cc1c[nH]c2ccccc12)NC(=O)CN1CCN(c2ccccc2)CC1 (centres unmarked) [Example 150, 1-amino-3-(1H-indol-3-yl)-2-[N-(2-((4-phenyl)piperazin-1-yl)acetyl)amino]propane] | 45% |

Same assay, conditions: @ 5 μM

| Compound | NK-1 percent inhibition of binding |
| --- | --- |
| NCC(NC(c1ccccc1)(c1ccccc1)c1ccccc1)c1ccc(Cl)c(Cl)c1 (centres unmarked) [Example 172] | 46% @ |

Same assay, conditions: inhibits fifty percent of binding of 125I-substance P to IM9 cells

| Compound | IC50 |
| --- | --- |
| COc1ccccc1CN(CC(Cc1c[nH]c2ccccc12)NC(=O)CSc1ccccc1)C(C)=O (centres unmarked) [Example 57] | 150 nM |
| COc1ccccc1CNCC(Cc1c[nH]c2ccc(OCc3ccccc3)cc12)NC(=O)CN1CCN(c2ccccc2)CC1 (centres unmarked) [Example 112] | 270 nM |
| COc1ccc2[nH]cc(CC(CNCc3ccccc3OC)NC(=O)CN3CCC(N4CCCCC4)CC3)c2c1 (centres unmarked) [Example 121] | 850 nM |
| COc1ccc2[nH]cc(CC(CN(Cc3ccccc3OC)C(C)=O)NC(=O)CN3CCN(c4ccccc4)CC3)c2c1 (centres unmarked) [Example 117] | 33 nM |
| COc1ccccc1CN(CC(Cc1c[nH]c2ccccc12)NC(=O)CCc1ccccc1)C(C)=O (centres unmarked) [Example 91] | 3000 nM |
| COc1ccccc1CN(CC(Cc1c[nH]c2ccccc12)NC(=O)CCc1ccccc1)C(C)=O (centres unmarked) [Example 90] | 65 nM |
| O=C(CN1CCN(c2ccccc2)CC1)NC(CNCc1ccccc1Cl)Cc1c[nH]c2ccccc12 (centres unmarked) [Example 2, 1-[N-(2-chlorobenzyl)amino]-3-(1H-indol-3-yl)-2-[N-(2-((4-phenyl)piperazin-1-yl)acetyl)amino]propane] | 36 nM |
| COc1ccccc1CN(CC(Cc1c[nH]c2c(C)cccc12)NC(=O)CN1CCC(N2CCCCC2)CC1)C(C)=O (centres unmarked) [Example 128] | 1.1 nM |
| CCCCN(CC(Cc1c[nH]c2ccccc12)NC(=O)CN1CCN(c2ccccc2)CC1)C(C)=O (centres unmarked) [Example 39] | 139 nM |
| COc1ccccc1CN(CC(Cc1c[nH]c2cc(F)ccc12)NC(=O)CN1CCC(N2CCCCC2)CC1)C(C)=O (centres unmarked) [Example 131a] | 0.7 nM |
| CC(=O)N(Cc1ccccc1C(F)(F)F)CC(Cc1c[nH]c2ccccc12)NC(=O)CN1CCN(c2ccccc2)CC1 (centres unmarked) [Example 15] | 2.1 nM |
| COc1ccccc1CN(CC(Cc1csc2ccccc12)NC(=O)CN1CCC(N2CCCCC2)CC1)C(C)=O (centres unmarked) [Example 149] | 1.2 nM |
| COc1ccc2[nH]cc(CC(CN(Cc3ccccc3OC)C(C)=O)NC(=O)CN3CCC(N4CCCCC4)CC3)c2c1 (centres unmarked) [Example 130] | 19 nM |
| COc1ccc(CNCC(Cc2c[nH]c3ccccc23)NC(=O)CN2CCN(c3ccccc3)CC2)cc1 (centres unmarked) [Example 8] | 130 nM |
| COc1ccccc1CNCC(Cc1c[nH]c2ccc(OCc3ccccc3)cc12)NC(=O)CN1CCC(N2CCCCC2)CC1 (centres unmarked) [Example 122] | 550 nM |
| COc1ccccc1CN(CC(Cc1csc2ccccc12)NC(=O)CN1CCN(c2ccccc2)CC1)C(C)=O (centres unmarked) [Example 143] | 7.9 nM |
| COc1cccc(CNCC(Cc2c[nH]c3ccccc23)NC(=O)CN2CCN(c3ccccc3)CC2)c1 (centres unmarked) [Example 7] | 230 nM |
| CC(=O)N(Cc1ccccc1Cl)CC(Cc1c[nH]c2ccccc12)NC(=O)CN1CCC(N2CCCCC2)CC1 (centres unmarked) [Example 48] | 0.24 nM |

| Compound | IC50 |
| --- | --- |
| COc1ccccc1CN(C[C@@H](Cc1c[nH]c2ccccc12)NC(=O)CCC(=O)c1ccccc1)C(C)=O [Example 96] | 34.4 nM |
| COc1ccccc1CN(C[C@H](Cc1c[nH]c2ccccc12)NC(=O)CCC(=O)c1ccccc1)C(C)=O [Example 97] | 1300 nM |
| CC(=O)N(Cc1ccccc1Cl)CC(Cc1c[nH]c2ccccc12)NC(=O)CN1CCN(C(C)C)CC1 (centres unmarked) [Example 86] | 0.36 nM |
| COc1ccccc1CN(CC(Cc1c[nH]c2ccc(Br)cc12)NC(=O)CN1CCC(N2CCCCC2)CC1)C(C)=O (centres unmarked) [Example 129] | 8.5 nM |
| COc1ccccc1CN(CC(Cc1c[nH]c2ccccc12)NC(=O)CBr)C(C)=O (centres unmarked) [Example 55] | 71 nM |
| CC(=O)N(Cc1ccccc1Cl)CC(Cc1c[nH]c2ccccc12)NC(=O)CN1CCC(N2CCCCC2)CC1 (centres unmarked) [Example 49] | 135 nM |
| COc1ccccc1CN(CC(C)(Cc1c[nH]c2ccccc12)NC(=O)CN1CCC(N2CCCCC2)CC1)C(C)=O (centres unmarked) [Example 132] | 4.2 nM |
| COc1ccccc1CN(CC(Cc1c[nH]c2c(C)cccc12)NC(=O)CN1CCN(c2ccccc2)CC1)C(C)=O (centres unmarked) [Example 115] | 15.4 nM |
| COc1ccccc1CN(CC(Cc1c[nH]c2ccc(OCc3ccccc3)cc12)NC(=O)CN1CCC(N2CCCCC2)CC1)C(C)=O (centres unmarked) [Example 131] | 67 nM |
| CC(=O)N(Cc1ccccc1Cl)CC(Cc1c[nH]c2ccccc12)NC(=O)CN1CCN(C2CCCCC2)CC1 (centres unmarked) [Example 87] | 0.77 nM |
| COc1ccccc1CN(CC(Cc1c[nH]c2ccccc12)NC(=O)CN1CCN(C(C)C)CC1)C(C)=O (centres unmarked) [Example 73] | 0.99 nM |
| COc1ccccc1CN(CC(C)(Cc1c[nH]c2ccccc12)NC(=O)CN1CCN(c2ccccc2)CC1)C(C)=O (centres unmarked) [Example 133] | 11.6 nM |
| O=C(CN1CCN(c2ccccc2)CC1)NC(CNCc1ccccc1C(F)(F)F)Cc1c[nH]c2ccccc12 (centres unmarked) [Example 3] | 29 nM |
| COc1ccccc1CN(CC(Cc1c[nH]c2ccc(OCc3ccccc3)cc12)NC(=O)CN1CCN(c2ccccc2)CC1)C(C)=O (centres unmarked) [Example 118] | 310 nM |
| CC(=O)N(Cc1ccccc1Cl)CC(Cc1c[nH]c2ccccc12)NC(=O)CN1CCN(c2ccccc2)CC1 (centres unmarked) [Example 13] | 1.3 nM |
| COc1ccccc1CNC[C@@H](Cc1c[nH]c2ccccc12)NC(=O)CN1CCN(c2ccccc2)CC1 [Example 5] | 62 nM |
| COc1ccccc1CN(CC(Cc1c[nH]c2ccccc12)NC(=O)OCc1ccccc1)C(C)=O (centres unmarked) [Example 92] | 97.2 nM |
| COc1ccccc1CNCC(Cc1c[nH]c2ccc(Br)cc12)NC(=O)CN1CCC(N2CCCCC2)CC1 (centres unmarked) [Example 120] | 2500 nM |

What follows are compounds tested against T2, human NK-2 receptor (Homo sapiens, UniProt P21452) (assay: NK-2 Receptor Binding Assay ([125I]iodohistidyl-neurokinin A, CHO-hNK-2R membranes)). Details: @ 10 μM.
T2 construct: expressed in transfected cells; host or cells: CHO-hNK-2R cells (CHO-derived), membrane preparation
T2 sequence (P21452 1-398): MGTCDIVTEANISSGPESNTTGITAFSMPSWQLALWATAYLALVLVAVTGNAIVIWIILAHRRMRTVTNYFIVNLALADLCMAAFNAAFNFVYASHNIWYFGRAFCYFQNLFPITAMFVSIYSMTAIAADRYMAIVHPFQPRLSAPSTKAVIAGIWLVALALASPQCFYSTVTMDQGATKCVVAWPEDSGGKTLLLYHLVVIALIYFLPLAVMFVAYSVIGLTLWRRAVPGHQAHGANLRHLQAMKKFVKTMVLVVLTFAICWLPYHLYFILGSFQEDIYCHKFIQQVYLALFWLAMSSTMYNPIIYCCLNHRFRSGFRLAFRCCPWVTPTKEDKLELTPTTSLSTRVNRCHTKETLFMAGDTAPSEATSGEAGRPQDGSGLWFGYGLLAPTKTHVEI
Experimental: as §1, with “art. See. e.g., J. Jukic, et al., Life Sciences, 49:1463-1469 (1991); N. Kucharczyk, et al., Journal of Medicinal Chemistry, 36:1654-1661 (1993); N. Rouissi, et al., Biochemical and Biophysical Research Communications, 176:894-901 (1991).” for “art.”
NK-2 Receptor Binding Assay
The CHO-hNK-2R cells, a CHO-derived cell line transformed with the human NK-2 receptor, expressing about 400,000 such receptors per cell, were grown in 75 cm^2 flasks or roller bottles in minimal essential medium (alpha modification) with 10% fetal bovine serum. The gene sequence of the human NK-2 receptor is given in N. P. Gerard, et al., Journal of Biological Chemistry, 265:20455-20462 (1990).
For preparation of membranes, 30 confluent roller bottle cultures were dissociated by washing each roller bottle with 10 ml of Dulbecco's phosphate buffered saline (PBS) without calcium and magnesium, followed by addition of 10 ml of enzyme-free cell dissociation solution (PBS-based, from Specialty Media, Inc.). After an additional 15 minutes, the dissociated cells were pooled and centrifuged at 1,000 RPM for 10 minutes in a clinical centrifuge. Membranes were prepared by homogenization of the cell pellets in 300 ml 50 mM Tris buffer, pH 7.4 with a Tekma® homogenizer for 10-15 seconds, followed by centrifugation at 12,000 RPM (20,000×g) for 30 minutes using a Beckman JA-14® rotor. The pellets were washed once using the above procedure. and the final pellets were resuspended in 100-120 ml 50 mM Tris buffer, pH 7.4, and 4 ml aliquots stored frozen at −70° C. The protein concentration of this preparation was 2 mg/ml.
For the receptor binding assay, one 4-ml aliquot of the CHO-hNK-2R membrane preparation was suspended in 40 ml of assay buffer containing 50 mM Tris, pH 7.4, 3 mM manganese chloride, 0.02% bovine serum albumin (BSA) and 4 μg/ml chymostatin. A 200 μl volume of the homogenate (40 μg protein) was used per sample. The radioactive ligand was [^125I]iodohistidyl-neurokinin A (New England Nuclear, NEX-252), 2200 Ci/mmol. The ligand was prepared in assay buffer at 20 nCi per 100 μl; the final concentration in the assay was 20 pM. Non-specific binding was determined using 1 μM eledoisin. Ten concentrations of eledoisin from 0.1 to 1000 nM were used for a standard concentration-response curve.
All samples and standards were added to the incubation in 10 μl dimethylsulfoxide (DMSO) for screening (single dose) or in 5 μl DMSO for IC50 determinations. The order of additions for incubation was 190 or 195 μl assay buffer, 200 μl homogenate, 10 or 5 μl sample in DMSO, 100 μl radioactive ligand. The samples were incubated 1 hr at room temperature and then filtered on a 48 well Brandel cell harvester through GF/B filters which had been presoaked for two hours in 50 mM Tris buffer, pH 7.7, containing 0.5% BSA. The filter was washed 3 times with approximately 3 ml of cold 50 mm Tris buffer, pH 7.7. The filter circles were then punched into 12×75 mm polystyrene tubes and counted in a gamma counter.

| Compound | NK-2 percent inhibition of binding |
| --- | --- |
| O=C(NCC(Cc1ccccc1)NC(=O)c1ccccc1)c1ccccc1 (centres unmarked) [Example 163] | 44% @ |

Same assay, conditions: inhibits fifty percent of binding of [125I]iodohistidyl-neurokinin A to CHO-hNK-2R membranes

| Compound | IC50 |
| --- | --- |
| COc1ccccc1CN(CC(Cc1c[nH]c2ccccc12)NC(=O)CN1CCC(N2CCCCC2)CC1)C(C)=O (racemic) [Example 50] | 3400 nM |
| COc1ccccc1CN(CC(Cc1c[nH]c2ccccc12)NC(=O)CN1CCN(c2ccccc2)CC1)C(C)=O (racemic) [Example 17] | 1600 nM |
